Laboratory results: ChEMBL document CHEMBL5543127, “Design, Synthesis, and Biological Evaluation of 2-Phenoxyalkylhydrazide Benzoxazole Derivatives as Quorum Sensing Inhibitors with Strong Antibiofilm Effect” (J Med Chem, 2024)
In brackets after ≈: the same amount, converted by molar mass. Activity calls are given as the source filed them. The rule behind the calls is not given here.

How the values were obtained:
Pseudomonas aeruginosa [1] = test: Anti-bacterial effect in Pseudomonas aeruginosa PAO1 assessed as reduction in bacterial survival by measuring inhibition rate at 0.4 microg/ml measured after 24 hrs incubation relative to control; type: functional
Staphylococcus aureus [2] = test: Anti-microbial activity against methicillin-resistant Staphylococcus aureus ATCC43300 incubated for 20 hrs By CLSI based micro-dilution method; type: functional
Pseudomonas aeruginosa [3] = test: Induction of anti-bacterial effect in Pseudomonas aeruginosa PAO1 assessed as synergistic effect by measuring reduction in bacterial survival in presence of clarithromycin at 16 to 128 microg/ml measured after 24 hrs incubation; type: functional, organism-based; details: dose 16-128 µg/ml
Pseudomonas aeruginosa [4] = test: Induction of anti-bacterial effect in Pseudomonas aeruginosa PAO1 assessed as synergistic effect by measuring reduction in bacterial survival in presence of ciprofloxacin at 16 to 128 microg/ml measured after 24 hrs incubation; type: functional, organism-based; details: dose 16-128 µg/ml
Pseudomonas aeruginosa [5] = test: In vivo anti-bacterial effect in Pseudomonas aeruginosa PAO1 infected in Kunming mouse assessed as reduction in bacterial survival at 25 mg/kg, ip measured after 1 hr incubation; type: functional, organism-based
Pseudomonas aeruginosa [6] = test: Induction of anti-bacterial effect in Pseudomonas aeruginosa PAO1 assessed as synergistic effect by measuring reduction in bacterial survival in presence of ciprofloxacin measured after 24 hrs incubation; type: functional, organism-based; details: dose 8-128 µg/ml
Pseudomonas aeruginosa [7] = test: Antibiofilm activity against logarithmic growth phase Pseudomonas aeruginosa PAO1 assessed as inhibition of biofilm formation at 16 microg/ml incubated for 20 hrs by crystal violet staining based analysis; type: functional
[8] = Inhibition of quorum sensing system in Pseudomonas aeruginosa PAO1- rhlA-gfp assessed as reduction in fluorescence intensity measured upto 12 hrs by GFP reporter strain assay; details: dose 32-128 µg/ml
Bacillus subtilis = test: Anti-microbial activity against Bacillus subtilis ATCC9372 incubated for 20 hrs By CLSI based micro-dilution method; type: functional
Pseudomonas aeruginosa [9] = test: Anti-microbial activity against Pseudomonas aeruginosa PAO1 incubated for 20 hrs By CLSI based micro-dilution method; type: functional
Pseudomonas aeruginosa [10] = test: In vivo induction of anti-bacterial effect in Pseudomonas aeruginosa PAO1 infected in Kunming mouse assessed as synergistic effect by measuring reduction in bacterial survival in presence of 15 mg/kg ciprofloxacin at 5 mg/kg, ip measured after 1 hr incubation relative to ciprofloxacin alone; type: functional, organism-based
Pseudomonas aeruginosa [11] = test: Anti-microbial activity against penicillin-susceptible Pseudomonas aeruginosa 27853 incubated for 20 hrs By CLSI based micro-dilution method; type: functional
Pseudomonas aeruginosa [12] = test: Induction of morphological changes in biofilm of Pseudomonas aeruginosa PAO1 assessed as biofilm damage at 102.4 microg/ml measured after 24 hrs by scanning electron microscopy; type: functional, organism-based; details: dose 102.4 µg/ml
Escherichia coli = test: Anti-microbial activity against penicillin-susceptible Escherichia coli ATCC25922 incubated for 20 hrs By CLSI based micro-dilution method; type: functional
Pseudomonas aeruginosa [13] = test: Inhibition of protease in logarithmic growth phase Pseudomonas aeruginosa PAO1 assessed as inhibition rate at 102.4 microg/ml measured after 32 hrs; details: dose 102.4 µg/ml
[14] = Inhibition of quorum sensing system in Pseudomonas aeruginosa PAO1 at logarithmic growth period assessed as inhibition of pyocyanin production at 102.4 microg/ml incubated for 18 hrs by pyocyanin inhibition assay; details: dose 102.4 µg/ml
Pseudomonas aeruginosa [15] = test: Antibacterial activity against Pseudomonas aeruginosa PAO1 at logarithmic growth phase assessed as growth inhibition at 153.6 microg/ml measured upto 25 hrs by growth curve assay; type: functional, organism-based; details: dose 153.6 µg/ml
Staphylococcus aureus [16] = test: Anti-microbial activity against erythromycin-susceptible Staphylococcus aureus ATCC25923 incubated for 20 hrs By CLSI based micro-dilution method; type: functional
Erythrocyte = test: Hemolytic activity in mouse RBC isolated from eye ball assessed as hemolysis at 256 microg/ml incubated for 1 hr; type: toxicity, cell-based; details: dose 256 µg/ml
Pseudomonas aeruginosa [17] = test: In vivo induction of anti-bacterial effect in Pseudomonas aeruginosa PAO1 infected in Kunming mouse assessed as synergistic effect by measuring reduction in bacterial survival in presence of 15 mg/kg ciprofloxacin at 25 mg/kg, ip measured after 1 hr incubation; type: functional, organism-based
Bacillus pumilus = test: Anti-microbial activity against Bacillus pumilus CMCC63202 incubated for 20 hrs By CLSI based micro-dilution method; type: functional
Pseudomonas aeruginosa [18] = test: Induction of anti-bacterial effect in Pseudomonas aeruginosa PAO1 assessed as synergistic effect by measuring reduction in bacterial survival in presence of clarithromycin measured after 24 hrs incubation; type: functional, organism-based; details: dose 8-128 µg/ml
Pseudomonas aeruginosa [19] = test: Induction of anti-bacterial effect in Pseudomonas aeruginosa PAO1 assessed as synergistic effect by measuring reduction in bacterial survival in presence of ciprofloxacin at 128 microg/ml measured after 24 hrs incubation relative to control; type: functional; details: dose 128 µg/ml
Pseudomonas aeruginosa [20] = test: Inhibition of swarming movement of Pseudomonas aeruginosa PAO1 assessed as movement state of bacterial clusters after 24 hrs by swarming motility assay; type: functional, organism-based; details: dose 25.6-102.4 µg/ml
[21] = Inhibition of quorum sensing system in Pseudomonas aeruginosa PAO1-lasB-gfp assessed as reduction in fluorescence intensity measured upto 12 hrs by GFP reporter strain assay; details: dose 32-128 µg/ml
Pseudomonas aeruginosa [22] = test: Antibacterial activity against Pseudomonas aeruginosa 27853 at logarithmic growth phase assessed as growth inhibition at 153.6 microg/ml measured upto 25 hrs by growth curve assay; type: functional, organism-based; details: dose 153.6 µg/ml
Pseudomonas aeruginosa [23] = test: Antibiofilm activity against logarithmic growth phase Pseudomonas aeruginosa PAO1 assessed as inhibition of biofilm formation at 32 microg/ml incubated for 20 hrs by crystal violet staining based analysis; type: functional
[24] = Inhibition of quorum sensing system in Pseudomonas aeruginosa PAO1-pqsA-gfp assessed as reduction in fluorescence intensity measured upto 12 hrs by GFP reporter strain assay; details: dose 32-128 µg/ml
Pseudomonas aeruginosa [25] = test: Induction of cell morphological change in Pseudomonas aeruginosa PAO1 at 102.4 microg/ml measured after 24 hrs by scanning electron microscopy; type: functional, organism-based; details: dose 102.4 µg/ml
[26] = Inhibition of quorum sensing system in Pseudomonas aeruginosa PAO1-gfp assessed as reduction in fluorescence intensity at 32 to 128 microg/ml measured upto 12 hrs by GFP reporter strain assay; details: dose 32-128 µg/ml
Pseudomonas aeruginosa [27] = test: Induction of cell wall rupture in Pseudomonas aeruginosa PAO1 at 102.4 microg/ml measured after 24 hrs by scanning electron microscopy; type: functional, organism-based; details: dose 102.4 µg/ml

Work on `O=C(O)c1cn(C2CC2)c2cc(N3CCNCC3)c(F)cc2c1=O` [CIPROFLOXACIN] yielded an inhibition at 0.4 µg/mL (Pseudomonas aeruginosa [1]) of 42%.
With `O=C(COc1ccc(F)cc1)NNc1nc2ccccc2o1` the MIC (Staphylococcus aureus [2]) was over 512 µg/mL, the Activity (Pseudomonas aeruginosa [3]) was “Active” and the Activity (Pseudomonas aeruginosa [4]) was “Active”. For the same compound, the Activity (Pseudomonas aeruginosa [5]) was “inactive”, the Activity (Pseudomonas aeruginosa [6]) was “Dose-Dependent Effect” and the inhibition at 16 µg/mL (Pseudomonas aeruginosa [7]) was over 50%. For the same compound, the inhibition [8] was “Dose-Dependent Effect”, the MIC (Bacillus subtilis) was 512 µg/mL (≈ 1700 µM) and the MIC (Pseudomonas aeruginosa [9]) was 512 µg/mL (≈ 1700 µM). For the same compound, the Activity (Pseudomonas aeruginosa [10]) was “Active”, the MIC (Pseudomonas aeruginosa [11]) was 512 µg/mL (≈ 1700 µM) and the Activity (Pseudomonas aeruginosa [12]) was “Active”. For the same compound, the MIC (Escherichia coli) was over 512 µg/mL, the inhibition (Pseudomonas aeruginosa [13]) was 10% and the inhibition [14] was 43.6%. The Activity (Pseudomonas aeruginosa [15]) was “inactive”, the MIC (Staphylococcus aureus [16]) was over 512 µg/mL and the Activity (Erythrocyte) was “Non-Toxic”. The Activity (Pseudomonas aeruginosa [17]) was “Active”, the MIC (Bacillus pumilus) was over 512 µg/mL and the Activity (Pseudomonas aeruginosa [18]) was “Dose-Dependent Effect”. The Activity (Pseudomonas aeruginosa [19]) was over 90%, the inhibition (Pseudomonas aeruginosa [20]) was “Dose-Dependent Effect” and the inhibition [21] was “Dose-Dependent Effect”. For the same compound, the Activity (Pseudomonas aeruginosa [22]) was “inactive”, the inhibition at 32 µg/mL (Pseudomonas aeruginosa [23]) was over 76.6% and the inhibition [24] was “Dose-Dependent Effect”. The Activity (Pseudomonas aeruginosa [25]) was “inactive”, the inhibition [26] was “Dose-Dependent Effect” and the Activity (Pseudomonas aeruginosa [27]) was “inactive”.
